Counter-ions that a name gives are not always drawn. Like-named read-outs stand apart in the source and are kept apart here. Where only a bound is given, the exact number is not on record here.

As a reminder, the EC50 is the concentration at which the effect is half-maximal. A high value points to lower potency in that assay. What is called solubility is the dissolved amount per volume that the medium holds. A high value points to much dissolved substance. In general, IC50 refers to the midpoint of a concentration-inhibition curve.

Data set [1] concerns human multiple myeloma cell line RPMI-8226. The data set can be described thus: Multiple myeloma model, subcutaneous RPMI-8226 tumors. The class given is in vivo. As to conditions: RPMI-8226 s.c. in male SCID/NOD mice; 100 mg/kg IV three consecutive days per week; after 45 days. The procedure: The effects of the test compound were studied in a human multiple myeloma cell line RPMI-8226 in male SCID/NOD mice. In this study, male mice were implanted subcutaneously with RPMI-8226 cells (1×10^7 cells). When the average tumor size reached 100 mm^3, animals were randomly assigned to treatment groups (N=10-15/group) to receive either vehicle (50 mM citrate, 50 mM ascorbate, 2.4 mM EDTA adjusted to pH 3.0) or 100 mg/kg (300 mg/m^2) of the test compound three consecutive days per week. The test article or vehicle was administered intravenously (IV) via the tail vein in a volume of 0.2 mL over approximately 20 seconds (sec). The animals were sacrificed after 45 days and tumor volumes compared.
(§1) The results from the biological activity analysis of the hydroquinones of the invention are presented below. All values are expressed as the mean±SEM. Data analysis consisted of a one way analysis of variance and if appropriate followed by Dunnets test to assess differences between vehicle and treatment groups. Differences are considered significant at p<0.05.

Data set [2] deals with MV4-11 cells. Briefly: MV4-11 cell cytotoxicity, Alamar blue. To be noted: Homo sapiens, 72 h, 3 days. Format: cell-based. The procedure: (§2) The human cancer cell lines SKBr3, MV4-11, K562, SK-MEL-28, LnCAP, and MDA-MB-468 were obtained from the American Type Culture Collection (Manassas, Va.). The multiple myeloma RPMI-8226 and MM1.s cells were from Dr. Teru Hideshima (Jerome Lipper Multiple Myeloma Center, Dana Farber Cancer Institute, Boston, Mass., USA.). All the cell lines were determined to be mycoplasma-free. The cells were maintained in RPMI-1640 medium supplemented with 10% heat-inactivated FBS, 50 units/mL streptomycin and 50 units/mL penicillin, and incubated at 37° C. in 5% CO2. Adherent cells were dissociated with 0.05% trypsin and 0.02% EDTA in phosphate buffer saline (PBS) without calcium and magnesium prior to plating for experimentation.
MV4-11 cells were incubated for 3 days with increasing concentrations of the test compound. Cell viability was assessed using an Alamar blue read out.
In general terms: Resazurin is reduced to fluorescent resorufin, in cell work by metabolically active cells.

The test system of data set [3] is SK-MEL-28 cells. Briefly: SK-MEL-28 cell cytotoxicity, Alamar blue. The class given is cell-based. As to conditions: Homo sapiens, SK-MEL-28 cells, 2, 3 or 4 days. The procedure: as §2
Increasing concentrations of the test compound was added to SK-MEL-28 cells in culture for 2, 3 or 4 days and the viability of the cells was measured using Alamar blue.

Data set [4] deals with MDA-MB-468 cells. The data set can be described thus: MDA-MB-468 cell cytotoxicity, Alamar blue. As to conditions: Homo sapiens, 72 h. The class given is cell-based. The procedure:
as §2
MDA-MB-468 Cells were incubated for 72 h with increasing concentrations of the test compound. For the viability studies Alamar blue was added and wells read after 6 h of incubation.

The test system of data set [5] is MM1.s cells. The data set can be described thus: MM1.s cell cytotoxicity, Alamar Blue assay. Format: cell-based. As to conditions: Homo sapiens, 72 h. The procedure: as §2
Alamar Blue assay. MM1.s cells (50,000/well) were incubated for 72 h with increasing concentrations of the test compound. Alamar blue was added to the wells and fluorescence measured 4 h after incubation at 37° C.

Data set [6] relates to Lewis lung cells. The data set can be described thus: Murine Lewis lung model. Format: in vivo. To be noted: Lewis lung cells s.c. in C57B1/6 mice; 75 mg/m^2 MWF for 3 cycles, tail vein; after 25 days. The procedure:
A study was performed in the mouse Lewis lung model to assess the ability of the compounds of the present invention to reduce both subcutaneous tumor burden as well as the incidence of lung metastasis. In this study C57B1/6 mice were implanted subcutaneously with Lewis lung cells (1×10^6 cells). When the average tumor size reached 71 mm^3 animals (N=10-15/group) were randomly assigned to the following treatment groups: vehicle and compound 15 75 mg/m^2 Monday, Wednesday and Friday (MWF) for 3 cycles. Each cycle consisted of […] of treatment. The test article or vehicle was administered via the tail vein in a volume of 0.2 mL over approximately 30 sec. The animals were sacrificed after 25 days and tumor volumes were compared.
as §1

For data set [7], the system named is PC-3 cells. Briefly: Prostate carcinoma, PC-3 xenograft models. The class given is in vivo. As to conditions: PC-3 s.c. in male nu/nu athymic mice; single agent 100 mg/kg twice weekly; after 64 days.
Procedure: Two studies were performed in mouse PC-3 prostate xenograft models to assess the ability of the test compound to reduce subcutaneous tumor burden as a single agent or in combination with current standard of care. In both studies male nu/nu athymic mice were implanted subcutaneously with PC-3 cells (1×10^7 cells). When the average tumor size reached 100 mm^3 animals were randomly assigned to treatment groups (N=10-15/group). In the first study mice received either vehicle, the test compound 100 mg/kg (300 mg/m^2) twice weekly. The test article or vehicle was administered via the tail vein in a volume of 0.2 mL over approximately 20 sec. The animals were sacrificed after 64 days and tumor volumes compared.
A second study was performed in this model to assess the test compound in combination with the standard of care, Taxotere. […] The animals were sacrificed after 64 days and tumor volumes compared.
Data set [8] concerns SKBr3 cells. Briefly: SKBr3 cell cytotoxicity, Alamar blue. To be noted: Homo sapiens, SK-BR-3, 72 h. The class given is cell-based. The procedure: as §2
SKBr3 Cells were incubated for 72 h with increasing concentrations of the test compound. For the viability studies Alamar blue was added and wells read after a 6 h incubation.

In data set [9] the test system is K562 cells. Briefly: K562 cell cytotoxicity, Alamar blue. The class given is cell-based. To be noted: Homo sapiens. The procedure: as §2
K562 cells were incubated with increasing concentrations of the test compound. Cell viability was assessed using an Alamar blue read out

Data set [10] in a line: physchem. To be noted: water / aqueous solutions.
Data set [11] deals with LnCAP cells. The data set can be described thus: LnCAP cell cytotoxicity, Alamar blue. Format: cell-based. To be noted: Homo sapiens, 96 h, 4 days. The procedure: as §2
Increasing concentrations of the test compound added to LnCAP cells in culture for 4 days and the viability of the cells was measured using Alamar blue.

Data set [12] concerns MDA-MB-468 breast carcinoma. Briefly: Breast carcinoma model, subcutaneous MDA-MB-468 tumors. Format: in vivo. To be noted: MDA-MB-468 s.c. in female nu/nu athymic mice; 100 mg/kg IV twice weekly; after 120 days. The procedure:
A study was performed in the MDA-MB-468 breast carcinoma model to assess the ability of the test compound to reduce subcutaneous tumor burden. In this study, female nu/nu athymic mice were implanted subcutaneously with MDA-MB-468 cells (1×10^7 cells). When the average tumor size reached 100 mm^3, animals were randomly assigned (N=10-15/group) to one of the following treatment groups; vehicle or the test compound at 100 mg/kg (300 mg/m^2) twice weekly every week. The test article or vehicle was administered intravenously (IV) via the tail vein in a volume of 0.2 mL over approximately 20 seconds (sec). The animals were sacrificed after 120 days and tumor volumes compared.
as §1

For data set [13], the system named is Native human Hsp90 protein isolated from HeLa cells. Briefly: Competitive binding to HSP90, fluorescence polarization assay with BODIPY-GDM. To be noted: competitive binding experiment.
Procedure: A 20 nM BODIPY-GDM solution was freshly prepared in FP binding assay buffer [20 mM HEPES-KOH, pH 7.3, 1.0 mM EDTA, 100 mM potassium chloride, 5.0 mM magnesium chloride, 0.01% NP-40, 0.1 mg/mL Bovine γ-globulin (BGG), 1.0 mM DTT, and Complete™ protease inhibitor] from a 20 μM stock solution in DMSO. […] After 3-h incubation at 30° C., fluorescence anisotropy was measured on an EnVision 2100 multilabel plate reader equipped with a 485 nm excitation filter and a 535 nm P/S emission filter (Perkin Elmer, Boston, Mass.).
A dilution series for each compound was freshly prepared in FP binding assay buffer from 20 μM to 0.20 nM. […] After 3-h incubation at 30° C., fluorescence anisotropy was measured on an EnVision 2100 plate reader.
Assays were performed under nitrogen atmosphere in a LabMaster glove box (M. Braun, Stratham, N H). […] After 3-h incubation at 30° C., the microplate was brought out of the glove box, and fluorescence anisotropy was immediately measured on an EnVision 2100 plate reader.
Binding of BODIPY-GDM to Hsp90 results in simultaneous increases in fluorescence anisotropy (FA) and intensity (FI). […]
[formula] with Hill coefficient forced to 1 for simplicity. From the values of FImax (bound ligand) and FImin (free ligand), a Q factor is calculated by: […]
[formula] and FA being expressed as the weighted sum of contributions from the free and bound forms of ligand: […]
In data set [14] the test system is SKOV-3 cells. Briefly: Ovarian carcinoma model, SKOV-3 xenograft. Format: in vivo. As to conditions: SKOV-3 s.c. in female nu/nu athymic mice; 100 mg/kg IV twice weekly; after 88 days. The procedure: A study was performed in the SKOV-3 ovarian mouse xenograft model to assess the ability of the test compound to reduce subcutaneous tumor burden. In this study, female nu/nu athymic mice were implanted subcutaneously with SKOV-3 cells (1×10^7 cells). When the average tumor size reached 100 mm^3, animals were randomly assigned to treatment groups (N=10-15/group) to receive either vehicle, the test compound at 100 mg/kg (300 mg/m^2) twice weekly. The test article or vehicle was administered intravenously (IV) via the tail vein in a volume of 0.1 mL over approximately 10 seconds (sec). The animals were sacrificed after 88 days and tumor volumes compared.
as §1

In data set [15] the test system is NCI 60 tumor cell line panel. To be noted: Developmental Therapeutics Program Website, read-out: mean IC50 over all cell lines in the panel; cited from earlier work.
The conditions of data set [16]: water / aqueous solutions.

Turning to `C=CCNc1c(O)cc2c(O)c1C[C@@H](C)C[C@H](OC)[C@H](O)[C@@H](C)/C=C(\C)[C@H](OC(N)=O)[C@@H](OC)/C=C\C=C(/C)C(=O)N2` [Compound 15, HCl Salt of the Hydroquinone of 17-AAG], the “% Tumor Growth Compared to Vehicle” value in data set [1] was determined as 71%; in [6] it was 60%; in [7], 50%; in [12], 76%; in [14], 59%. The concentration for a half-maximal effect (EC50) was 25 nM in [2]; 200 nM in [3]; 335 nM in data set [4]; 307 nM in data set [5]; 32 nM in data set [8]; 29 nM in [9]. In data set [11], the EC50 stood at 73 nM. In data set [10], this molecule showed a solubility of over 200 mg/mL. In [13], the “HSP90 inhibition (summary in words)” value is “active HSP90 inhibitors”.
Regarding `C=CCNC1=C2C[C@@H](C)C[C@H](OC)[C@H](O)[C@@H](C)/C=C(\C)[C@H](OC(N)=O)[C@@H](OC)/C=C\C=C(/C)C(=O)NC(=CC1=O)C2=O` [Compound 17-AAG, 17-allylamino-17-demethoxygeldanamycin, reference compound], the IC50 in [15] is 120 nM. The EC50 in data set [2] worked out at 38 nM; in data set [4] it was 356 nM; in data set [5] it was 306 nM; in data set [8], 34 nM; in data set [9] it was 50 nM.
For `C=CCNc1c(O)cc2c(O)c1C[C@@H](C)C[C@H](OC)[C@H](O)[C@@H](C)/C=C(\C)[C@H](OC(N)=O)[C@@H](OC)/C=C\C=C(/C)C(=O)N2` [hydroquinone of 17-AAG, 17-allylamino-18,21-dihydro-17-demethoxygeldanamycin], the solubility in [16] fell in the range of 1 to 3 mg/mL.

The values are drawn from US8003634B2, “Analogs of benzoquinone-containing ansamycins and methods of use thereof” (Infinity Pharmaceuticals, Inc., priority 2003, dated 2011).
